The values below come from patent US5962415A, “Compositions comprising a peptide inhibitor of nuclear protein translocation and an immunosuppressant and methods of use thereof” (Bristol-Myers Squibb Co., priority 1998, dated 1999).

Assay [1] has as its system 70Z/3 murine leukemia pre-B cells. In words: LPS-stimulated surface antigen expression (κ Ig light chain, IL-2 receptor, CD45) in 70Z/3 cells. The assay is classed as cell-based. The settings on record: dose-response data, FIG. 1B. The procedure:
Expression of κ Ig, CD45, CD40, and the interleukin-2 receptor was assayed using standard enzyme-linked immunosorbent assays ("ELISAs") (see, Coligan et al. (eds.) (1991) Current Protocols in Immunology, Wiley & Sons, p. 2.10 or by FACS staining to measure cell-surface markers as described in Raff (1970) Immunology 19:637). Antibodies form cell surface markers were obtained from Pharmingen Co.
The effect of the SV40MEM polypeptide was compared with two additional polypeptides, […] (SEQ ID NO:2) (the "HIV-1MEM" polypeptide), which is composed of the membrane translocation domain of FGF flanked by the NLS from the HIV-1 matrix protein and […] (SEQ ID NO:3) (the "C-MYCMEM" polypeptide), which contains the NLS from the human c-myc oncoprotein (Chelsky et al. (1989), supra, and Dang et al. (1988), supra) using murine 70Z/3 pre-B cells.
Murine 70Z/3 cells (ATCC TlD-158) are a model cell line for analyzing the effects of compounds on B-cell differentiation. In response to S. typhosa LPS (Difco) or γ-interferon, these cells differentiate from surface κ immunoglobulin negative to κ Ig positive.
[…] of: (1) a peptide containing only the FGF signal sequence AAVALLPAVLLALLAP (SEQ ID NO:4) (the "MEM" peptide); (2) a polypeptide having the FGF signal sequence and the NLS of NF-κB p50 on the carboxy terminus of the signal sequence, namely, the NF-κBMEM polypeptide; (3) the SV40MEM polypeptide comprised of L-amino acids; or (4) the SV40MEM polypeptide comprised of D-amino acids. The cells were then incubated with LPS as described in Example 2 and assayed for expression of κ light chain expression.

Assay [2] deals with BALB/c mice immunized with KLH. In words: Anti-hemocyanin (KLH) response in mice. The settings on record: 5 mg/kg day 0 plus 5 doses every other day, serum day 14, FIG. 12. The assay is classed as in vivo. The procedure: Female BALB/c mice (8 weeks of age) were immunized by intraperitoneal injection of 25 μg keyhole limpet (Megathura crenulata) hemocyanin ("KLH") (Pacific Bio-Marine Laboratories, Venice, Calif.) without adjuvant on day 0. Mice were divided into groups of five and inhibitory peptides C-MYCMEM and BMS-205820 ([…] (SEQ ID NO:24)), which is identical to the SV40MEM polypeptide with the exception that the polypeptide lacks the C-terminal cysteine, were administered on day 0 at 5 mg/kg, followed by 5 subsequent doses of the same concentration every other day. Control mice were treated with a single 200-μg dose of Chimeric L6 antibody ("Chi L6"). After 14 days, the mice were bled from the orbital sinus and the level of anti-KLH antibodies were measured in the serum by ELISA as described in Example 11.

A further assay relates to CD14. In words: LPS binding to CD14 (plate assay with soluble CD14 Ig). The settings on record: E. coli AO16 LPS, 2 hours at 4° C., FIG. 14. The procedure: 96-well plates were coated with goat-anti human Ig, soluble CD-1 4 Ig was added, and the plates were incubated overnight at 4° C. The BMS polypeptide, the C-MYCMEM polypeptide, an SV40 NLS polypeptide containing a single SV40 large T-antigen NLS, a c-myc NLS without a translocation sequence (AKRVKL (SEQ ID NO:6)), a control non-NLS polypeptide, 377G, or PBS, were added to the plates and the plates were incubated for 5 min. E. coli AO16 LPS was then added to the plates and the plates were incubated for 2 hours at 4° C. The plates were washed and LPS was detected using 0.5 μg/ml mouse anti-E. coli LPS, followed by goat anti-mouse horseradish peroxidase.

Assay [3] has as its system Splenic T-cells from BALB/c mice. Nature of the assay: Mouse splenic T-cell proliferation ([3H]-thymidine). The class given is cell-based. The conditions noted are these: 0.5 or 2.0 μM, FIG. 16. How it is done:
Splenic T-cells from BALB/c mice were isolated by glass wool chromatography and treated with either 0.5 or 2.0 μM peptide in 96 well plates for 2 hours followed by activation with either anti-CD3 alone ([…]), PMA alone (1 ng/ml), anti-CD3 plus anti-CD28 ([…] each) or anti-CD28 plus PMA ([…] and 1 ng/ml, respectively). Plates were coated with antibody 24 hours prior to activation. Proliferation was determined after 72 hours by pulsing for 8 hours with [^3 H]-thymidine, and determining radioactivity incorporated into DNA.

Regarding “AKRVKLAAVALLPAVLLALLAKRVKLC [C-MYCMEM, contains the NLS from the human c-myc oncoprotein]”, in assay [1], the “efficacy at inhibiting κ Ig light chain production (comparison of three polypeptides)” value is recorded as “approximately equally efficacious” and the “potency at inhibiting κ Ig light chain production compared with SV40MEM” value is on record as “not as potent”. Further, the “specific anti-KLH response” value in assay [2] was “inhibited”. Also, in the assay on CD14, the “binding of LPS to CD14” value is listed as “block it from binding CD14”. Further, the T cell proliferation entry in assay [3] (stimulated with PMA + anti-CD28, 2 hours pretreatment) is recorded as “inhibited”. Also, in assay [3] (stimulated with anti-CD3 + anti-CD28, 2 hours pretreatment), the T cell proliferation result is “augmentation of proliferation”.
